The nature of series [1]: Permeability from apical to basolateral side of human Caco2 cells. The class given is ADME, cell-based. The note with it: Caco-2, read-out: permeability.
A short description of series [2]: Permeability from basolateral to apical side of human Caco2 cells. The class given is ADME, cell-based. Particulars: Caco-2, read-out: permeability.
Series [3] has as its target Protein kinase C alpha type (Homo sapiens, UniProt P17252). Nature of the series: Inhibition of PKCalpha.
A short description of series [4]: Selectivity ratio of Ki for Src to Ki for PKCtheta.
Series [5] has as its target T1, Protein kinase C theta type (Homo sapiens, UniProt Q04759). Nature of the series: Inhibition of PKCtheta.
Series [6] in a line: Selectivity ratio of Ki for GSK3beta to Ki for PKCtheta.
Series [7] concerns the target Protein kinase C delta type (Homo sapiens, UniProt Q05655). Briefly: Inhibition of PKCdelta.
Series [8] can be described thus: Selectivity ratio of Ki for PKA to Ki for PKCtheta.
Series [9] has as its target T1, Protein kinase C theta type. Briefly: Inhibition of PKCtheta-mediated IL-2 production by cell based assay.
Series [10] has as its target Vascular endothelial growth factor receptor 2 (Homo sapiens, UniProt P35968). Nature of the series: Inhibition of KDR.
Series [11] can be described thus: Mean residence time in mouse at 3 mg/kg, iv and 10 mg/kg, po. Type of series: ADME, organism-based. The note with it: in vivo.
Series [12] has as its target Protein kinase C beta type (Homo sapiens, UniProt P05771). Nature of the series: Inhibition of PKCbeta.
Series [13] concerns the target Tyrosine-protein kinase Lyn (Homo sapiens, UniProt P07948). Nature of the series: Inhibition of LYN.
Series [14] in a line: Clearance in mouse at 3 mg/kg, iv and 10 mg/kg, po. Type of series: ADME, organism-based. Particulars: in vivo.
Series [15] concerns the target Tyrosine-protein kinase JAK2 (Homo sapiens, UniProt O60674). Nature of the series: Inhibition of JAK2.
The target of series [16] is Serine/threonine-protein kinase PLK1 (Homo sapiens, UniProt P53350). Nature of the series: Inhibition of Plk.
The target of series [17] is Tyrosine-protein kinase ZAP-70 (Homo sapiens, UniProt P43403). Nature of the series: Inhibition of ZAP70.
Series [18] has as its target Phosphatidylinositol 4,5-bisphosphate 3-kinase catalytic subunit alpha isoform (Homo sapiens, UniProt P42336). Briefly: Inhibition of PI3Kalpha.
A short description of series [19]: Apparent volume of distribution in mouse at 3 mg/kg, iv and 10 mg/kg, po. The class given is ADME, organism-based. Particulars: in vivo, read-out: Vz.
In series [20] the target is Phosphatidylinositol 4,5-bisphosphate 3-kinase catalytic subunit gamma isoform (Homo sapiens, UniProt P48736). Nature of the series: Inhibition of PI3Kgamma.
The target of series [21] is Rho-associated protein kinase 1 (Homo sapiens, UniProt Q13464). Briefly: Inhibition of ROCK1.
Series [22] concerns the target Tyrosine-protein kinase Lck (Homo sapiens, UniProt P06239). Briefly: Inhibition of LCK.
Series [23] deals with Cyclin-dependent kinase 2 (Homo sapiens, UniProt P24941). Nature of the series: Inhibition of CDK2.
For series [24], the target named is Mitogen-activated protein kinase 3 (Homo sapiens, UniProt P27361). Briefly: Inhibition of ERK1.
Series [25] addresses RAF proto-oncogene serine/threonine-protein kinase (Homo sapiens, UniProt P04049). Nature of the series: Inhibition of c-Raf.
A short description of series [26]: Half life in mouse at 3 mg/kg, iv and 10 mg/kg, po. The class given is ADME, organism-based. Particulars: in vivo.
Series [27] can be described thus: Volume of distribution at steady state in mouse at 3 mg/kg, iv and 10 mg/kg, po. Type of series: ADME, organism-based. Particulars: in vivo, read-out: Vdss.
The target of series [28] is Receptor-type tyrosine-protein kinase FLT3 (Homo sapiens, UniProt P36888). Nature of the series: Inhibition of Flt3.
Series [29] has as its target Mitogen-activated protein kinase 10 (Homo sapiens, UniProt P53779). Nature of the series: Inhibition of JNK3.
The target of series [30] is Protein kinase C epsilon type (Homo sapiens, UniProt Q02156). Nature of the series: Inhibition of PKCepsilon.
The target of series [31] is Tyrosine-protein kinase ITK/TSK (Homo sapiens, UniProt Q08881). Briefly: Inhibition of ITK.
Tyrosine-protein kinase ITK/TSK, sequence (Q08881 whole entry): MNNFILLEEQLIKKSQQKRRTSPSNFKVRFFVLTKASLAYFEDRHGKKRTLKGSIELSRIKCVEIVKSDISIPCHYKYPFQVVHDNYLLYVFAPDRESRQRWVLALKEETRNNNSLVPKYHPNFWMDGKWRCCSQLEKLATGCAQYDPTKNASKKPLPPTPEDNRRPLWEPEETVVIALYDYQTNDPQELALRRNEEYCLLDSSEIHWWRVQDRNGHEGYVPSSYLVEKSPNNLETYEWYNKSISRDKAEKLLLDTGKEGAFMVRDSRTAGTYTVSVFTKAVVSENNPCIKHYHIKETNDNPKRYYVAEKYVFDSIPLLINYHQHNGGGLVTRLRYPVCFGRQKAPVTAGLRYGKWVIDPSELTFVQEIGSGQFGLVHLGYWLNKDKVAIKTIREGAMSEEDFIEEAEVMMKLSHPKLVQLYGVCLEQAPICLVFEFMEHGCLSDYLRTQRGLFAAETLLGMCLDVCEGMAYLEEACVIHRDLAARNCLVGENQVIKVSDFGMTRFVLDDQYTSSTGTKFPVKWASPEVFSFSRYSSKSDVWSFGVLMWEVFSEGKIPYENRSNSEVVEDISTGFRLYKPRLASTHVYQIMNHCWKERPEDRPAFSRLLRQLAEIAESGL
The target of series [32] is Tyrosine-protein kinase Fyn (Homo sapiens, UniProt P06241). Briefly: Inhibition of FYN.
The test system of another series is Plasma. Briefly: fCmax in Staphlyococcal enterotoxin B challenged Balb/c mouse plasma at 100 mg/kg, po after 2 hrs. More on the design: dose 100 mg/kg, route oral. The note with it: in vivo. Type of series: ADME, organism-based.
Series [33] can be described thus: Oral bioavailability in mouse at 10 mg/kg. The class given is ADME, organism-based. The note with it: in vivo.

SMILES strings stand for the structures. Some results are limits rather than exact numbers.

T1 sequence (Q04759 whole entry): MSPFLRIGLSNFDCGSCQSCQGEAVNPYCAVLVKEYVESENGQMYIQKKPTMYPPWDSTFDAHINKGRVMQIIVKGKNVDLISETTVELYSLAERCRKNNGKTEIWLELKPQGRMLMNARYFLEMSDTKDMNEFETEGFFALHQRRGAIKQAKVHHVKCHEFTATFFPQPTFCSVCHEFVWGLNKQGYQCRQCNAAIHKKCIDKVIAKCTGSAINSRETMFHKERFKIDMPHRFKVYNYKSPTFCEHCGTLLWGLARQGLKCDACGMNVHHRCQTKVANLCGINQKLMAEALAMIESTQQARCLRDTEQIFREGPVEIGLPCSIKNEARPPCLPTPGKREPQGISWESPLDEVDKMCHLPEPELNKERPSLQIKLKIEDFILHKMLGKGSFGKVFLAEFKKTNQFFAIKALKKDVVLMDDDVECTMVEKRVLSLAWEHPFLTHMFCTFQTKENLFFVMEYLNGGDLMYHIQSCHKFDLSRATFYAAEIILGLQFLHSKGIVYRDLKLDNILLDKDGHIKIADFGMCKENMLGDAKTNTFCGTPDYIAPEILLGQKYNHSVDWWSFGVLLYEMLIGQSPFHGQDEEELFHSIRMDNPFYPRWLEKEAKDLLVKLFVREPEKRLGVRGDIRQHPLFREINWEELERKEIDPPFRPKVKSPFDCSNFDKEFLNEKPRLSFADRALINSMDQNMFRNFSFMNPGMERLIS
Protein kinase C delta type, sequence (Q05655 whole entry): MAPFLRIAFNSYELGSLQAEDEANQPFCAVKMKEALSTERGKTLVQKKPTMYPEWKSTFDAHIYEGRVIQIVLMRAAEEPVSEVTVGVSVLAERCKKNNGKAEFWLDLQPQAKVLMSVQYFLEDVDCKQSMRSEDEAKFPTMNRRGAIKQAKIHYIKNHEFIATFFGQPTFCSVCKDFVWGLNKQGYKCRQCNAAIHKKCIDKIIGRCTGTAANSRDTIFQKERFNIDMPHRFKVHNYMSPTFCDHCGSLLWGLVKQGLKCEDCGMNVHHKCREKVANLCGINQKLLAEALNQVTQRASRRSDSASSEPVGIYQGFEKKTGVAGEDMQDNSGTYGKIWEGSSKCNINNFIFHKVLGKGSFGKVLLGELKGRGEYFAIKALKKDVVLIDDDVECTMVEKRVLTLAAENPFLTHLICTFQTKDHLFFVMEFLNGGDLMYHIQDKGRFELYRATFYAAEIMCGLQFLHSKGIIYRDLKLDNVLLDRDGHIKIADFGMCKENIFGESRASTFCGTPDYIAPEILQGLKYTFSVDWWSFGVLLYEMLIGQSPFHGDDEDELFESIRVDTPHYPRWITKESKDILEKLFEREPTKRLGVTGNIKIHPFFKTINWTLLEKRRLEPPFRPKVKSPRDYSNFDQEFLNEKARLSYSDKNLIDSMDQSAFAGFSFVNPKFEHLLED
Tyrosine-protein kinase JAK2, sequence (O60674 whole entry): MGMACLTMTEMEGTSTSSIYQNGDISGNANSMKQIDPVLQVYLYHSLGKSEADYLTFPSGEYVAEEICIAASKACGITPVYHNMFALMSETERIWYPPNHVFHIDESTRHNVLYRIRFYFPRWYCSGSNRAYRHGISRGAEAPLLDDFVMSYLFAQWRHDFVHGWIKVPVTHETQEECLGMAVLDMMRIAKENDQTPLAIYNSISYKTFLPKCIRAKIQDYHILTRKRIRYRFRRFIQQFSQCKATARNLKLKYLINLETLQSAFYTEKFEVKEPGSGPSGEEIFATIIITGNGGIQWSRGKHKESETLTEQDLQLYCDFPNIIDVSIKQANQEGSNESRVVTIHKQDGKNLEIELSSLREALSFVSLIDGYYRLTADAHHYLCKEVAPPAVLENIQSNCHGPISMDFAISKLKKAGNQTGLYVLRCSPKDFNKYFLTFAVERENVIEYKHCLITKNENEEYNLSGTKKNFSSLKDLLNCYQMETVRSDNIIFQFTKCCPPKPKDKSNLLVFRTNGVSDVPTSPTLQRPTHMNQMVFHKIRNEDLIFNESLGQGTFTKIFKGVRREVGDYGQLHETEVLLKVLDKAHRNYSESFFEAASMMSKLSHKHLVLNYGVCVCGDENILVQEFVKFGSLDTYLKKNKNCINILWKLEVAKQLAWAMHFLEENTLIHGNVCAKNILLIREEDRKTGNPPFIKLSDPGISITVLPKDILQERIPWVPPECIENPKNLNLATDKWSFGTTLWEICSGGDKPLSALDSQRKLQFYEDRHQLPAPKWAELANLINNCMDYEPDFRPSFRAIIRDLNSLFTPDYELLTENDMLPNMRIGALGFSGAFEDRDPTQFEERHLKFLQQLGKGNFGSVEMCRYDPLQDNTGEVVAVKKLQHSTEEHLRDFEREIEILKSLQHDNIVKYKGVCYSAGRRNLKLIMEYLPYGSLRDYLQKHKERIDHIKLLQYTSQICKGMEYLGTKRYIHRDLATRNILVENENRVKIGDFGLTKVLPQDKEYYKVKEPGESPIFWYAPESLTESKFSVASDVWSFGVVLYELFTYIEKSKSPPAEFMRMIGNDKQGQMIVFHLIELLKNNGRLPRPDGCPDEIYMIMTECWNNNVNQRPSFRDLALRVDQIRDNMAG
Protein kinase C beta type, sequence (P05771 whole entry): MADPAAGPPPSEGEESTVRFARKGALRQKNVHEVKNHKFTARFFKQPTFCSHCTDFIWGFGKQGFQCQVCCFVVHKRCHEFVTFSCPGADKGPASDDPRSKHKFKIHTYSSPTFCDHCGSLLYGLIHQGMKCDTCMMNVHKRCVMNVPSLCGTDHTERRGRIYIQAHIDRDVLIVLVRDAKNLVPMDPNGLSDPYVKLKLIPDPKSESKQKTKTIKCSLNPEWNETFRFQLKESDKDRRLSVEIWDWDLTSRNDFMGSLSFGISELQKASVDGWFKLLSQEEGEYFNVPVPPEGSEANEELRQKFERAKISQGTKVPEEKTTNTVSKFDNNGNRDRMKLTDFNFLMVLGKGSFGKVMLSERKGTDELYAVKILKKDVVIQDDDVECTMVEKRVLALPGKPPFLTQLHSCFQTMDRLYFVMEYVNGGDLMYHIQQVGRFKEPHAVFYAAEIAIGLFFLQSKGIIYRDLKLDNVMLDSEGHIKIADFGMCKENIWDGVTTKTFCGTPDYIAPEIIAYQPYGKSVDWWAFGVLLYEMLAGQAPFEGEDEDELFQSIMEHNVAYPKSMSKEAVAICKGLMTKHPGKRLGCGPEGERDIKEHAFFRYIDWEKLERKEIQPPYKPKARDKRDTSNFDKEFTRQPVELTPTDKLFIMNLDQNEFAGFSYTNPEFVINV
Tyrosine-protein kinase Lyn, sequence (P07948 whole entry): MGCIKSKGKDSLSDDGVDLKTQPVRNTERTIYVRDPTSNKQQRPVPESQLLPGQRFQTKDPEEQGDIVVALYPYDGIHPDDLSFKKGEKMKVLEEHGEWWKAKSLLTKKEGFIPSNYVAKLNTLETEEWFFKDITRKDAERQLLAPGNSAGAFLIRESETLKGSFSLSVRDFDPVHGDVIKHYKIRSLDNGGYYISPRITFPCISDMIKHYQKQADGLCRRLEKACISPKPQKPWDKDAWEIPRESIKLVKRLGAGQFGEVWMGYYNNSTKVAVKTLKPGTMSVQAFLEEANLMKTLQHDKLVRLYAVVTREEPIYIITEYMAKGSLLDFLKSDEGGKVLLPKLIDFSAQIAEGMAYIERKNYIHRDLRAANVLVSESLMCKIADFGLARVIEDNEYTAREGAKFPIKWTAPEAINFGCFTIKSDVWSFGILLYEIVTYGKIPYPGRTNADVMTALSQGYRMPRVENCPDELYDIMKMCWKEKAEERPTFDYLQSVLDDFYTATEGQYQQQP

Turning to `Nc1ncccc1C(=O)c1cccc(N2CCCNCC2)n1`, in series [1], the Papp A→B is 9 ×10⁻⁶ cm/s. The Papp B→A in series [2] is 11 ×10⁻⁶ cm/s.

In turn, `Cc1cc(C(=O)c2cccnc2N)nc(N2CCN[C@@H](CC(C)C)C2)c1` yielded an inhibition constant Ki in series [3] of 459 nM.

For `CC(C)C[C@H]1CN(c2ccc(OC(F)F)c(C(=O)c3cccnc3N)n2)CCN1`, the Ratio Ki in series [4] was more than 570; in series [6], more than 570; in series [8] it was 84. Moreover, the values for the Ki in [5], in series [7] and in series [3] were 7 nM, 87 nM and 459 nM, respectively. Moreover, in series [9], the IC50 was determined as 229 nM.

Regarding `CC(C)C[C@H]1CN(c2ccc(C(F)(F)F)c(C(=O)c3cccnc3N)n2)CCN1`, the Ki in series [5] is 3 nM; in series [10], more than 4000 nM; in series [12], 260 nM; in series [7], 37 nM; in [15], more than 4000 nM; in series [16], more than 4000 nM. Moreover, the inhibition constant (Ki) in series [18] was more than 4000 nM; in series [20], more than 4000 nM; in series [21] it was more than 4000 nM; in series [23] it was more than 4000 nM; in series [3], 76 nM; in series [28] it was 580 nM. Further, the Ki was more than 4000 nM in series [29] and 17 nM in [30]. In addition, in series [11], the MRT amounted to 1.4 h. Besides, the IC50 in [13] is more than 2000 nM; in series [17], more than 2000 nM; in series [9], 52 nM; in series [22] it was more than 2000 nM; in series [24] it was more than 2000 nM; in series [25], more than 2000 nM. Besides, the IC50 in series [31] and in [32] was more than 2000 nM in each case. In series [14], this molecule registered a clearance of 203 mL/min/kg. The Vd turned out to be 19.7 L/kg in series [19] and 15.8 L/kg in [27]. For the same molecule, the half-life in series [26] is 1.3 h. The molecule further gave a fCmax with Plasma of 150 nM. The same molecule had a bioavailability in [33] of 45%.

As to `Nc1ncccc1C(=O)c1cccc(N2CCC(N)C2)n1` (configuration not stated), the inhibitory constant (Ki) in series [5] amounted to 1520 nM. This counts as single-digit micromolar.

The molecule `CCCc1ccc(N2CCN[C@@H](CC(C)C)C2)nc1C(=O)c1cccnc1N` came in with an inhibitory constant (Ki) in series [3] of 1230 nM.

Molecule `CC(C)C[C@H]1CN(c2ccc(C3CC3)c(C(=O)c3cccnc3N)n2)CCN1` yielded a Ki in series [3] of 2650 nM.

Regarding `CC(C)C[C@H]1CN(c2ccc(Cl)c(C(=O)c3cccnc3N)n2)CCN1`, the figures for the Ratio Ki in series [4], in series [6] and in series [8] were more than 4000, 255 and 38, respectively. Further, the inhibition constant (Ki) in series [5] turned out to be 2 nM; in series [7] it was 22 nM; in series [3] it was 49 nM. The same molecule gave an IC50 in series [9] of 58 nM.

Take `CC(C)C[C@H]1CN(c2cccc(C(=O)c3cccnc3N)n2)CCN1`: the Ratio Ki in [4] is more than 1400; in series [6] it was 143; in [8] it was 60. Also, the Ki was 3 nM in [5], 20 nM in series [7] and 54 nM in [3]. The molecule also showed an IC50 in [9] of 165 nM.

In series [3], `CC(C)C[C@H]1CN(c2ccc(Cc3ccccc3)c(C(=O)c3cccnc3N)n2)CCN1` displayed a Ki of more than 1250 nM.

These data come from ChEMBL document CHEMBL2046282, “Structure-based optimization of aminopyridines as PKCθ inhibitors” (Bioorg Med Chem Lett, 2012).
